Literature values as cited in patent US8017623B2 (Trinity Laboratories, Inc., priority 2008, dated 2011).
Structures can show the parent of a compound that is named as a salt. Where two headings read alike, the source gives them in different places.

Columns and labels:
[1] = for peak plasma dextromethorphan concentration (mean) / peak plasma dextromethorphan concentrations (range): chronic oral dosing of 120 mg daily, divided doses
[2] = rat, normal
females = details: for mean plasma bromide concentration at the end of the treatment: females, three menstrual cycles
thyroid = details: rats, normal chloride intake
thyroid gland = details: rats fed diets containing 4800 or 19200 ppm; from 3 days, constant over 12 weeks

SMILES: COc1ccc2c(c1)[C@]13CCCC[C@@H]1[C@H](C2)N(C)CC3 [Dextromethorphan Hydrobromide]
- solubility (at 20° C.): 1.5%
- solubility (at 85° C.): 25%
- solubility (below 20° C.): sparingly soluble

SMILES: COc1ccc2c(c1)[C@]13CCCC[C@@H]1[C@H](C2)N(C)CC3 [Dextromethorphan, 3-methoxy-17-methyl-9a, 13a, 14 a-morphinan]
- conjugated dextrorphan excreted ([1]; 24 hour period): up to 30%
- dose excreted unchanged in the urine ([1]; 24 hour period): less than 2.5%
- peak plasma dextromethorphan concentration (mean) ([1]; extensive metabolizers): 2.4 ng/mL
- peak plasma dextromethorphan concentrations (range) ([1]; extensive metabolizers): 0.5 to 5.9 ng/mL
- peak plasma dextromethorphan concentration (mean) ([1]; poor metabolizers): 207 ng/mL
- peak plasma dextromethorphan concentrations (range) ([1]; poor metabolizers): 182 to 231 ng/mL
- peak concentration in serum ([1]; single 20 mg oral dose): 1.8 ng/mL
- time of peak serum concentration ([1]; single 20 mg oral dose): 2.5 h

SMILES: Br [bromide]
- half-life [2]: 3 days
- quantitative analysis of the electroencephalogram (EEG) (females; females receiving 9 mg Br/kg/day): only a marginal effect
- serum thyroxine, free thyroxine, triiodothyronine, thyrotropine and thyroxine-binding globulin (females; females, 0, 4 and 9 mg Br/kg/day): In none of the three groups were significant changes observed
- mean plasma bromide concentration at the end of the treatment (females; 4 mg Br/kg/day): 3.22 mmol/L
- mean plasma bromide concentration at the end of the treatment (females; 9 mg Br/kg/day): 7.99 mmol/L
- NOAEL based on effects on the thyroid (thyroid): 240 ppm bromide
- NOAEL based on effects on the thyroid (thyroid; equivalent dose): 12 mg bromide/kg bw/day

SMILES: [Br-].[Na+] [sodium bromide]
- effect on reproduction (rats; 1200 ppm): no effects on reproduction were observed
- effect on reproduction (rats; 4800 ppm): fertility and viability of the offspring were reduced
- effect on reproduction (rats; 19200 ppm (highest dose level)): complete infertility
- medical history, physical examination, haematology, clinical chemistry and urine analyses (healthy volunteers; 4 or 9 mg Br/kg/day, except for incidental nausea): no changes were observed
- serum thyroxine and triiodothyronine at the end of the study compared to pre-administration values (healthy volunteers; females receiving 9 mg Br/kg/day, concentrations remained within normal limits): significant increase
- mean plasma bromide concentration at the end of treatment (healthy volunteers; females, 4 mg Br/kg/day oral, three full cycles): 3.05 mmol/L
- mean plasma bromide concentration at the end of treatment (healthy volunteers; females, 9 mg Br/kg/day oral, three full cycles): 4.93 mmol/L
- mean plasma bromide concentration at the end of treatment (healthy volunteers; males, 4 mg Br/kg/day oral, 12 weeks): 2.14 mmol/L
- mean plasma bromide concentration at the end of treatment (healthy volunteers; males, 9 mg Br/kg/day oral, 12 weeks): 4.30 mmol/L
- NOAEL based on effects on the thyroid (thyroid): 300 ppm sodium bromide
- thyroxine concentrations (thyroid gland): significantly decreased
